6 compounds from patent US20260184706A1, “PHENYLSULFONAMIDE DERIVATIVES, PREPARATION METHOD THEREFOR, AND PHARMACEUTICAL COMPOSITION FOR PREVENTION OR TREATMENT OF CANCER CONTAINING SAME AS ACTIVE INGREDIENT” (Korea Research Institute of Chemical Technology, priority 2022, published 2026) can be followed below.

The target of test [1] is T1, recombinant human PERK protein (Homo sapiens, UniProt Q9NZJ5).
T1 sequence (Q9NZJ5 30-1116): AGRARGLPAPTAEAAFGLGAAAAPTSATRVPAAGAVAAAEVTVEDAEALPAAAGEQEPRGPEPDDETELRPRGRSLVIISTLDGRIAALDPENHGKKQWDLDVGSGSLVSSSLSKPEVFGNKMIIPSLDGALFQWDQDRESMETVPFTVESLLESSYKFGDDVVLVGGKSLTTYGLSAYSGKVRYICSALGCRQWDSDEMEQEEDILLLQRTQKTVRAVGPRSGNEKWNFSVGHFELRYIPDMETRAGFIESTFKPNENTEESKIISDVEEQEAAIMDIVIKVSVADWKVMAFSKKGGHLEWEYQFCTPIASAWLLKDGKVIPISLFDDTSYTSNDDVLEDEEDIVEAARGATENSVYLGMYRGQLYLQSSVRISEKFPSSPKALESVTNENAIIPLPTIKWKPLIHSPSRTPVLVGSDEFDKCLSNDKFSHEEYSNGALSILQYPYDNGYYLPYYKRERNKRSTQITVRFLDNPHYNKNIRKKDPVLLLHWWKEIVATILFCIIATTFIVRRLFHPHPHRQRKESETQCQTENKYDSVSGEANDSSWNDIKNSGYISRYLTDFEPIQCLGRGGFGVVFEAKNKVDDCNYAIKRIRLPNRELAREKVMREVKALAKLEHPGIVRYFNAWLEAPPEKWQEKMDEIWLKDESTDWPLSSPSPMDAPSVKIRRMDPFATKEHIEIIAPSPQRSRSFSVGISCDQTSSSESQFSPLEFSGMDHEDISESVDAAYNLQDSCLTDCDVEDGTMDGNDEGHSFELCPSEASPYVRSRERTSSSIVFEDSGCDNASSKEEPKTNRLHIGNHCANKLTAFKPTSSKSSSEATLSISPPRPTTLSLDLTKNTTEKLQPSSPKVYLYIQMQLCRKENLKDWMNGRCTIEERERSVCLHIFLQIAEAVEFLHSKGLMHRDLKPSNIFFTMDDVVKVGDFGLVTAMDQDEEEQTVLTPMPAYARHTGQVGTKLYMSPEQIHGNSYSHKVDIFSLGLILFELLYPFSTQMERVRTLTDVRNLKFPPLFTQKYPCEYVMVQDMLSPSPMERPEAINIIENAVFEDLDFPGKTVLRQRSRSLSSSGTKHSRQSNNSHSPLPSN
Kind of test: PKR-like endoplasmic reticulum kinase (PERK) inhibitory capacity, 33P-ATP filter assay. The class given is biochemical. Particulars: 15 uM [gamma-33P-ATP], 40 minutes, room temperature.

In test [2] the test system is ATF4. Kind of test: Inhibition of ATF4, downstream factor of ISR, in HT-1080 cells, Western blot (FIG. 1). Particulars: amino acid deficiency, compound 50 nM, 24 hours. The class given is cell-based, human. Here is the method: <Experimental Example 5> Evaluation of Inhibitory Efficacy of ISR-Related Kinase GCN2 Under Amino Acid Deficiency Condition Using Western Blot
HT-1080 cells, a human fibrosarcoma cell line, were cultured in RPMI-1640 medium supplemented with 10% FBS, penicillin (penicillin; 100 IU/ml), and streptomycin (streptomycin; 100 μg/ml). Cells (1×10^6 cells/ml) were seeded onto 100 mm plates (polypropylene tissue culture plate) and incubated for 24 hours in a 37° C., 5% CO2 incubator before being used for experiments.
The following method was used to achieve amino acid deficiency conditions in cells. After 24 hours of cell culture, the cells were cultured in amino acids and L-glutamine-free RPMI-1640 medium supplemented with 10% FBS, penicillin (100 IU/ml), and streptomycin (100 μg/ml). After 24 hours of cell culture in RPMI-1640 without amino acids and L-glutamine, the compound prepared at a concentration of 50 nM was dispensed onto each plate and cultured for 24 hours in a 37° C., 5% CO2 incubator.
In order to measure the signal transduction inhibitory efficacy of GCN among the ISR-related kinases according to the present invention, the following experiment was performed using SDS-PAGE. The fibrosarcoma cell line HT-1080 cells cultured on plates as described above were washed with PBS after removing the culture medium. After removing PBS, the cells were lysed by adding a radio-immunoprecipitation assay buffer (RIPA buffer) containing 50 mM Tris (pH 7.4), 150 mM NaCl, 1% NP-40, 0.5% sodium deoxycholate, 2 mM sodium fluoride, 2 mM EDTA, 0.1% SDS, and a protease/phosphatase inhibitor cocktail to the plate. After centrifugation at 4° C., 13,000×g for 15 minutes, the protein in the upper layer was collected, and the protein concentration was measured at 562 nm using BCA (bicinchoninc acid) reagent, and the amount of protein in all samples was prepared at 20-50 μg.
After making the total volume the same using the sample buffer and RIPA buffer, it was heated at 97° C. for 5 minutes. Then, electrophoresis was performed on 8% or 12% SDS-PAGE at 80 V for 30 minutes and at 160 V for 1 hour and 30 minutes. After electrophoresis, the SDS-PAGE gel was transferred to an NC membrane (nitrocellulose membrane) at 90 V for 2 hours. The NC membrane was placed in TBST (tris buffer saline tween-20; 20 mM tris, 137 mM sodium chloride, 0.1% tween-20, pH 8.0) containing 5% non-fat skim milk, placed on a shaker, and reacted at room temperature for 1 hour.
Each primary antibody was diluted in TBST containing 5% non-fat skim milk, poured onto the NC membrane, and reacted at 4° C. for 24 hours. The membrane was washed three times for 10 minutes each with TBST. The secondary antibodies (anti-rabbit IgG and anti-mouse IgG labeled with horseradish peroxidase (HRP)) were diluted in TBST containing 5% non-fat skim milk and reacted with the membrane at room temperature for 1 hour. Upon completion of the reaction, the membrane was washed three times with TBST for 10 minutes each. Protein expression bands were detected by a chemiluminescence image analyzer (Image Quant LAS 500) after the ECL solution was reacted with the NC membrane.
FIG. 1 is a set of photographs confirming the mechanism proteins that react upon ISR activation, wherein the numbers correspond to example numbers of the present invention. […] They are also known to have an effect on increasing the expression of CHOP (GADD153), the most downstream factor of the mechanism. […] Thus, in addition to the activation of ISR by amino acid deficiency, a significant effect can be expected on the mechanism of inhibition of the activity of PERK, an ISR-related kinase, due to endoplasmic reticulum stress response.
A general note: Immunoblotting shows a protein as a band on a membrane.

As to `COc1ncc(Cl)cc1S(=O)(=O)Nc1ccc(F)c(-n2cc(C(F)F)c3nc(N)ncc3c2=O)c1F` [Example 22, N-(3-(2-amino-8-(difluoromethyl)-5-oxopirido[4,3-d]pyrimidin-6(5H)-yl)-2,4-difluorophenyl)-5-chloro-2-methoxypyridine-3-sulfonamide], the IC50 (usually the concentration needed to halve the response being measured) in test [1] is below 0.1 µM. The “inhibitory effect on ATF4 (FIG. 1)” value in test [2] is “excellent inhibitory effects”.

As to `CNc1ncc2c(=O)n(-c3c(F)ccc(NS(=O)(=O)c4cc(Cl)cnc4OC)c3F)ccc2n1` [Example 32, 5-chloro-N-(2,4-difluoro-3-(2-(methylamino)-5-oxopirido[4,3-d]pyrimidin-6(5H)-yl)phenyl)-2-methoxypyridine-3-sulfonamide], the IC50 in test [1] was below 0.1 µM.

`Nc1ncc2c(=O)n(-c3c(F)ccc(NS(=O)(=O)c4cc(Cl)cnc4Cl)c3F)ccc2n1` [Example 27, N-(3-(2-amino-5-oxopirido[4,3-d]pyrimidin-6(5H)-yl)-2,4-difluorophenyl)-2,5-dichloropyridine-3-sulfonamide]: the IC50 in test [1] was below 0.1 µM.

`COc1ncc(Cl)cc1S(=O)(=O)Nc1ccc(F)c(-n2c(=O)c3cnc(N)nc3n(C)c2=O)c1F` [Example 44, N-(3-(7-amino-1-methyl-2,4-dioxo-1,4-dihydropyrimido[4,5-d]pyrimidin-3(2H)-yl)-2,4-difluorophenyl)-5-chloro-2-methoxypyridine-3-sulfonamide]: the IC50 in test [1] is below 0.1 µM. In test [2], the “inhibitory effect on ATF4 (FIG. 1)” value is recorded as “excellent inhibitory effects”.

As to `COc1ncc(Br)cc1S(=O)(=O)Nc1ccc(F)c(-n2c(=O)c3cnc(N)nc3n(C)c2=O)c1F` [Example 46, N-(3-(7-amino-1-methyl-2,4-dioxo-1,4-dihydropyrimido[4,5-d]pyrimidin-3(2H)-yl)-2,4-difluorophenyl)-5-bromo-2-methoxypyridine-3-sulfonamide], the IC50 in test [1] was below 0.1 µM. For the same compound, in test [2], the “inhibitory effect on ATF4 (FIG. 1)” value is reported as “excellent inhibitory effects”.

For `Nc1ncc2c(=O)n(-c3c(F)ccc(NS(=O)(=O)c4cccc5ccccc45)c3F)ccc2n1` [Example 29, N-(3-(2-amino-5-oxopirido[4,3-d]pyrimidin-6(5H)-yl)-2,4-difluorophenyl)naphthalene-1-sulfonamide], in test [1], the IC50 is below 0.1 µM. For the same compound, the “inhibitory effect on ATF4 (FIG. 1)” value in test [2] is reported as “excellent inhibitory effects”.
